In PMC11859825, “Discovery of Sphingosine Kinase Inhibition by Modified Quinoline-5,8-Diones” (Pharmaceuticals, 2025) one finds inhibition data, which are given here for eight compounds.

Where two headings read alike, the source gives them in different places.

The target in assay [1] is recombinant human SphK1 (Homo sapiens, UniProt Q9NYA1). The assay can be described thus: Fluorometric NBD-sphingosine sphingosine kinase inhibition assay, SphK1.
Experimental: (§1) The fluorescence-based assay involved incubating the quinoline-5,8-diones with SphK isoforms individually (recombinant SphK1 and SphK2 in duplicate) [41].
(§2) The relevant enzymes and inhibitors were incubated in total reaction volumes of 100 µL with 10 µM NBD-sphingosine, 500 µM 4-deoxypyridoxine and 1 mM Mg-ATP in assay buffer (100 mM Tris/HCl (pH 7.4), 150 mM NaCl, 2 mM Na3VO4 and 10 mM NaF) for 30 min at 37 °C. A reaction mixture containing no test SphK inhibitor served as the positive control, while a reaction mixture containing no Mg-ATP served as the negative control. Post-incubation, 100 µL of potassium phosphate buffer, pH 8.5, was added to each Eppendorf, followed by 500 µL of 2:1 Chloroform/Methanol. After brief mixing with a vortex, phases were separated by centrifugation at 2000 rpm for 5 min. […] Data are expressed as mean SD from a minimum of 2 independent experiments. […] From this, the IC50 values of several test inhibitors were calculated.
Assay [2] has as its target T1, recombinant human SphK2 (Homo sapiens, UniProt Q9NRA0).
T1 sequence (Q9NRA0 1-654): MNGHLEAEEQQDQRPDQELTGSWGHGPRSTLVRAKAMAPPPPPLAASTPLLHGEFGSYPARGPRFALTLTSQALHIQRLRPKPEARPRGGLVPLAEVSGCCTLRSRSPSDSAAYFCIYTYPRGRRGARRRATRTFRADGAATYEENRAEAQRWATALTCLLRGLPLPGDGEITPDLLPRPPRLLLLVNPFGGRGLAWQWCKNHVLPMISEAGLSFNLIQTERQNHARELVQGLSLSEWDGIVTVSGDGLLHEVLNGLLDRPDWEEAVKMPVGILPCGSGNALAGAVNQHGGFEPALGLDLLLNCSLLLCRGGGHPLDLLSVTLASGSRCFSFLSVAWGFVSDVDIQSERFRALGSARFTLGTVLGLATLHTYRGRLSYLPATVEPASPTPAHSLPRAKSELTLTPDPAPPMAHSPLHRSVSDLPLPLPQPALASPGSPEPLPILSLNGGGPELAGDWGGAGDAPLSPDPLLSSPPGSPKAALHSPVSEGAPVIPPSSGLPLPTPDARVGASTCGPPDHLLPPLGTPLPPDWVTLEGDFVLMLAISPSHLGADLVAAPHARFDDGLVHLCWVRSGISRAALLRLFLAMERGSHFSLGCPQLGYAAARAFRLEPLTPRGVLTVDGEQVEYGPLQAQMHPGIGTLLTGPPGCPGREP
The assay can be described thus: Fluorometric NBD-sphingosine sphingosine kinase inhibition assay, SphK2.
Experimental: as §1, §2

Where [3] appears, read: read-out: SphK1 inhibition, 10 μM compound.
The mark [4] stands for this setting: read-out: Spk1 % (inhibition), Average, 10 μM, Tables S3-S5.
[5] abbreviates: read-out: Spk1 % (inhibition), replicate A, 10 μM, Tables S3-S5.
The mark [6] stands for this setting: read-out: Spk1 % (inhibition), replicate B, 10 μM, Tables S3-S5.
[7] abbreviates: read-out: Spk2 % (inhibition), Average, 10 μM, Tables S3-S5.
[8] abbreviates: read-out: Spk2 % (inhibition), replicate A, 10 μM, Tables S3-S5.
Setting [9] is: read-out: Spk2 % (inhibition), replicate B, 10 μM, Tables S3-S5.

Chain of recombinant human SphK1 (Q9NYA1 whole entry): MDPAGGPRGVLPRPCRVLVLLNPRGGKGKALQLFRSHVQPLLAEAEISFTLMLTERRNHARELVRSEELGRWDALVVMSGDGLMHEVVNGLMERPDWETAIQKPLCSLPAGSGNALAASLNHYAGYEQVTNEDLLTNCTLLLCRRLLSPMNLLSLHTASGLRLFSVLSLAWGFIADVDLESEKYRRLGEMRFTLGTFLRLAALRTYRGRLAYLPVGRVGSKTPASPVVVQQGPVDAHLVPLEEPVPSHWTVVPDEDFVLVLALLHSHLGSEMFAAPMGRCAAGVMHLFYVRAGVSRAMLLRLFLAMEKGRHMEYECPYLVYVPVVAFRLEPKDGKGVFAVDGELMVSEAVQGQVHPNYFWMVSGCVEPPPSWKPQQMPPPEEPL

With `Cc1ccc2c(n1)C(=O)C(Oc1ccc(Cl)c(Cl)c1)=CC2=O` [Compound 8, 7-(3,4-Dichlorophenoxy)-2-methylquinoline-5,8-dione], the inhibition at 10 µM in assay [1] (setting [3]) amounted to 26%; in assay [1] (setting [4]), 25.3%; in assay [1] (setting [5]) it was 17%; in assay [1] (setting [6]), 32.1%; in assay [2] (setting [7]) it was 37.8%; in assay [2] (setting [8]) it was 36%. Also, the inhibition at 10 µM in assay [2] (setting [9]) amounted to 39.2%.

Regarding `Cc1ccc2c(n1)C(=O)C(Oc1ccc(F)c(F)c1)=CC2=O` [Compound 9, 7-(3,4-Difluorophenoxy)-2-methylquinoline-5,8-dione], the inhibition at 10 µM stood at 20% in assay [1] (setting [3]); 20.3% in assay [1] (setting [4]); 14.4% in assay [1] (setting [5]); 25.1% in assay [1] (setting [6]); 25.2% in assay [2] (setting [7]); 27.4% in assay [2] (setting [8]). For the same compound, the inhibition at 10 µM in assay [2] (setting [9]) was determined as 23.5%.

As for `Cc1ccc2c(n1)C(=O)C(Oc1ccc(F)c(Cl)c1)=CC2=O` [Compound 10, 7-(3-Chloro-4-fluorophenoxy)-2-methylquinoline-5,8-dione], the inhibition at 10 µM in assay [1] (setting [3]) was 0%; in assay [1] (setting [4]), -7.2%; in assay [1] (setting [5]), -7.7%; in assay [1] (setting [6]) it was -6.5%; in assay [2] (read-out: SphK2 inhibition, 10 μM compound), 0%; in assay [2] (setting [7]) it was -1.9%. Further, the values for the inhibition at 10 µM in assay [2] (setting [8]) and in assay [2] (setting [9]) were -4.7% and 0.3%, respectively.

Take `Cc1ccc2c(n1)C(=O)C(Oc1ccc(CCO)cc1)=CC2=O` [Compound 11, 7-(4-(2-Hydroxyethyl)phenoxy)-2-methylquinoline-5,8-dione]: the inhibition at 10 µM in assay [1] (setting [4]) worked out at 19%; in assay [1] (setting [5]), 17.6%; in assay [1] (setting [6]), 20.1%; in assay [2] (setting [7]) it was 33.1%; in assay [2] (setting [8]), 31.4%; in assay [2] (setting [9]) it was 34.5%.

As to `COc1ccc(OC2=CC(=O)c3ccc(C=O)nc3C2=O)cc1` [Compound 13, 7-(4-Methoxyphenoxy)-5,8-dioxo-5,8-dihydroquinoline-2-carbaldehyde], the inhibition at 10 µM in assay [1] (setting [4]) was 14.6%; in assay [1] (setting [5]), 4.3%; in assay [1] (setting [6]) it was 22.6%; in assay [2] (setting [7]), 39.7%; in assay [2] (setting [8]) it was 38.1%; in assay [2] (setting [9]), 41.1%.

Turning to `COc1cccc(OC2=CC(=O)c3ccc(C=O)nc3C2=O)c1` [Compound 14, 7-(3-Methoxyphenoxy)-5,8-dioxo-5,8-dihydroquinoline-2-carbaldehyde], the inhibition at 10 µM in assay [1] (setting [4]) was -6.7%; in assay [1] (setting [5]) it was -8.6%; in assay [1] (setting [6]), -4.9%; in assay [2] (setting [7]), 0.4%; in assay [2] (setting [8]), -1.7%; in assay [2] (setting [9]), 2%.

`O=Cc1ccc2c(n1)C(=O)C(Oc1ccc(F)cc1)=CC2=O` [Compound 15, 7-(4-Fluorophenoxy)-5,8-dioxo-5,8-dihydroquinoline-2-carbaldehyde]: the inhibition at 10 µM in assay [1] (setting [4]) worked out at 11.1%; in assay [1] (setting [5]) it was 6.2%; in assay [1] (setting [6]), 15.2%; in assay [2] (setting [7]) it was 22.1%; in assay [2] (setting [8]), 18.1%; in assay [2] (setting [9]) it was 25.3%.

Turning to `O=Cc1ccc2c(n1)C(=O)C(Oc1ccc(F)c(F)c1)=CC2=O` [Compound 18, 7-(3,4-Difluorophenoxy)-5,8-dioxo-5,8-dihydroquinoline-2-carbaldehyde], the inhibition at 10 µM was -22.7% in assay [1] (setting [4]); -26.7% in assay [1] (setting [5]); -19.2% in assay [1] (setting [6]); -16.4% in assay [2] (setting [7]); -19.8% in assay [2] (setting [8]); -13.7% in assay [2] (setting [9]).
